{"source": "ChEMBL document CHEMBL6182888", "about": "“Design, synthesis, and biological activity study of 6,7-dimethoxy-1,2,3,4-tetrahydroisoquinoline derivatives against multidrug resistance in Eca109/VCR cells” (Eur J Med Chem, 2025)", "key": {"[1]": {"test_system": "Eca-109/VCR", "assay": "Reversal of multi-drug resistance in human Eca-109/VCR cells assessed as decrease in cloning formation at 0.5 to 2 uM incubated for 8 days by crystal violet staining based analysis", "type": "functional, cell-based", "details": "dose 0.5-2 µM, time 8.0 day"}, "[2]": {"test_system": "Eca-109/VCR", "assay": "Cytotoxicity against human Eca-109/VCR cells assessed as reduction in cell viability incubated for 48 hrs by CCK-8 assay", "type": "functional, cell-based"}, "[3]": {"test_system": "Eca-109/VCR", "assay": "Cytotoxicity against human Eca-109/VCR cells assessed as reduction in cell viability at 5.0 uM incubated for 48 hrs by CCK-8 assay relative to control", "type": "functional"}, "[4]": {"assay": "Reversal fold, ratio of vincristine IC50 to vincristine IC50 in presence of test compound for reversal of drug resistance in human Eca-109/VCR cells at 5 uM incubated for 48 hrs by CCK-8 assay", "type": "functional"}, "[5]": {"test_system": "Eca-109/VCR", "assay": "Induction of apoptosis in human Eca-109/VCR cells assessed as viable cells at 2.5 uM incubated for 60 hrs by Annexin V-FITC/PI staining based flow cytometric analysis (reference value: 97.4%)", "type": "functional", "details": "read-out: Activity"}, "[6]": {"test_system": "Eca-109/VCR", "assay": "Induction of apoptosis in human Eca-109/VCR cells assessed as early apoptotic cells at 2.5 uM incubated for 60 hrs by Annexin V-FITC/PI staining based flow cytometric analysis (reference value: 1.66%)", "type": "functional"}, "[7]": {"test_system": "Eca-109/VCR", "assay": "Reversal of multi-drug resistance in human Eca-109/VCR cells assessed as decrease in cloning formation at 0.5 to 2 uM incubated for 8 days in presence of vincristine by crystal violet staining based analysis", "type": "functional, cell-based", "details": "dose 0.5-2 µM, time 8.0 day"}, "[8]": {"test_system": "Eca-109/VCR", "assay": "Reversal of multi-drug resistance in human Eca-109/VCR cells assessed as decrease in cloning formation incubated for 8 days in presence of vincristine by crystal violet staining based analysis", "type": "functional, cell-based", "details": "dose 0.5-2 µM, time 8.0 day"}, "[9]": {"test_system": "Eca-109/VCR", "assay": "Effect on p-gp expression in human Eca-109/VCR cells at 5 to 10 uM incubated for 24 hrs by Western blotting analysis", "type": "functional, cell-based", "details": "dose 5-10 µM"}, "[10]": {"test_system": "Eca-109/VCR", "assay": "Induction of apoptosis in human Eca-109/VCR cells assessed as late apoptotic cells at 2.5 uM incubated for 60 hrs by Annexin V-FITC/PI staining based flow cytometric analysis (reference value: 0.70%)", "type": "functional"}, "[11]": {"test_system": "Eca-109/VCR", "assay": "Induction of apoptosis in human Eca-109/VCR cells assessed as necrotic cells at 2.5 uM incubated for 60 hrs by Annexin V-FITC/PI staining based flow cytometric analysis (reference value: 0.22%)", "type": "functional"}, "[12]": {"test_system": "Eca-109/VCR", "assay": "Induction of apoptosis in human Eca-109/VCR cells assessed as viable cells at 5 uM incubated for 60 hrs by Annexin V-FITC/PI staining based flow cytometric analysis (reference value: 97.4%)", "type": "functional", "details": "read-out: Activity"}, "[13]": {"test_system": "Eca-109/VCR", "assay": "Induction of apoptosis in human Eca-109/VCR cells assessed as early apoptotic cells at 5 uM incubated for 60 hrs by Annexin V-FITC/PI staining based flow cytometric analysis (reference value: 1.66%)", "type": "functional"}, "[14]": {"test_system": "Eca-109/VCR", "assay": "Induction of apoptosis in human Eca-109/VCR cells assessed as late apoptotic cells at 5 uM incubated for 60 hrs by Annexin V-FITC/PI staining based flow cytometric analysis (reference value: 0.70%)", "type": "functional"}, "[15]": {"assay": "Apparent clearance in male Sprague-Dawley rat at 10 mg/kg, po measured after 24 hrs by UPLC-MS/MS analysis", "type": "ADME, organism-based", "details": "in vivo, read-out: CL(app) (converted)"}, "[16]": {"assay": "Reversal fold, ratio of mitoxantrone IC50 to mitoxantrone IC50 in presence of test compound for reversal of drug resistance in human Eca-109/VCR cells at 5 uM incubated for 48 hrs by CCK-8 assay", "type": "functional"}, "[17]": {"assay": "Reversal fold, ratio of docetaxel IC50 to docetaxel IC50 in presence of test compound for reversal of drug resistance in human Eca-109/VCR cells at 5 uM incubated for 48 hrs by CCK-8 assay", "type": "functional"}, "[18]": {"assay": "Reversal fold, ratio of doxorubicin IC50 to doxorubicin IC50 in presence of test compound for reversal of drug resistance in human Eca-109/VCR cells at 5 uM incubated for 48 hrs by CCK-8 assay", "type": "functional"}, "[19]": {"assay": "Reversal fold, ratio of lapatinib IC50 to lapatinib IC50 in presence of test compound for reversal of drug resistance in human Eca-109/VCR cells at 5 uM incubated for 48 hrs by CCK-8 assay", "type": "functional"}, "[20]": {"assay": "Reversal fold, ratio of colchicine IC50 to colchicine IC50 in presence of test compound for reversal of drug resistance in human Eca-109/VCR cells at 5 uM incubated for 48 hrs by CCK-8 assay", "type": "functional"}, "[21]": {"test_system": "Eca-109/VCR", "assay": "Induction of apoptosis in human Eca-109/VCR cells assessed as viable cells at 2.5 uM incubated for 60 hrs in presence of vincristine by Annexin V-FITC/PI staining based flow cytometric analysis (reference value: 97.3%)", "type": "functional", "details": "read-out: Activity"}, "[22]": {"test_system": "Eca-109/VCR", "assay": "Induction of apoptosis in human Eca-109/VCR cells assessed as viable cells at 5 uM incubated for 60 hrs in presence of vincristine by Annexin V-FITC/PI staining based flow cytometric analysis (reference value: 97.3%)", "type": "functional", "details": "read-out: Activity"}, "[23]": {"test_system": "Eca-109/VCR", "assay": "Induction of apoptosis in human Eca-109/VCR cells assessed as late apoptotic cells at 2.5 uM incubated for 60 hrs in presence of vincristine by Annexin V-FITC/PI staining based flow cytometric analysis (reference value: 0.56%)", "type": "functional"}, "[24]": {"test_system": "Eca-109/VCR", "assay": "Induction of apoptosis in human Eca-109/VCR cells assessed as late apoptotic cells at 5 uM incubated for 60 hrs in presence of vincristine by Annexin V-FITC/PI staining based flow cytometric analysis (reference value: 0.56%)", "type": "functional"}, "[25]": {"test_system": "Eca-109/VCR", "assay": "Induction of apoptosis in human Eca-109/VCR cells assessed as necrotic cells at 2.5 uM incubated for 60 hrs in presence of vincristine by Annexin V-FITC/PI staining based flow cytometric analysis (reference value: 0.10%)", "type": "functional"}, "[26]": {"test_system": "Eca-109/VCR", "assay": "Induction of apoptosis in human Eca-109/VCR cells assessed as necrotic cells at 5 uM incubated for 60 hrs in presence of vincristine by Annexin V-FITC/PI staining based flow cytometric analysis (reference value: 0.10%)", "type": "functional"}}, "note": "The source made the active and inactive calls. The rule behind the calls is not given here."}
{"smiles": "CC[C@]1(O)C[C@H]2CN(CCc3c([nH]c4ccccc34)[C@@](C(=O)OC)(c3cc4c(cc3OC)N(C=O)[C@H]3[C@@](O)(C(=O)OC)[C@H](OC(C)=O)[C@]5(CC)C=CCN6CC[C@]43[C@@H]65)C2)C1", "note": "[VINCRISTINE]", "values": [{"measurement": "Activity", "setting": "[1]", "result": "inactive"}, {"measurement": "IC50", "setting": "[2]", "result": 4.15, "unit": "µM"}]}
{"smiles": "COc1cc2c(cc1OC)C(Cc1ccc(OS(=O)(=O)c3ccccc3[N+](=O)[O-])c(OC)c1)N(C)CC2", "note": "(configuration not stated)", "values": [{"measurement": "Cell viability (% of control)", "setting": "[3]", "result": 99.1, "unit": "%"}, {"measurement": "Ratio IC50", "setting": "[4]", "result": 467.7}, {"measurement": "viability at 2.5 µM", "setting": "[5]", "result": 96.9, "unit": "%"}, {"measurement": "Activity", "setting": "[6]", "result": 2.19, "unit": "%"}, {"measurement": "Activity", "setting": "[1]", "result": "inactive"}, {"measurement": "Activity", "setting": "[7]", "result": "Active; Compound Showed Superior Reversal Activity Compared To Oy-101"}, {"measurement": "Activity", "setting": "[8]", "result": "Dose-dependent-effect"}, {"measurement": "Activity", "setting": "[9]", "result": "Active"}, {"measurement": "Activity", "setting": "[10]", "result": 0.53, "unit": "%"}, {"measurement": "Activity", "setting": "[11]", "result": 0.29, "unit": "%"}, {"measurement": "viability at 5 µM", "setting": "[12]", "result": 97.1, "unit": "%"}, {"measurement": "Activity", "setting": "[13]", "result": 1.61, "unit": "%"}, {"measurement": "Activity", "setting": "[14]", "result": 1, "unit": "%"}, {"measurement": "CL/F", "setting": "[15]", "result": 393, "unit": "L/h/kg"}, {"measurement": "Ratio IC50", "setting": "[16]", "result": 10}, {"measurement": "Ratio IC50", "setting": "[17]", "result": 149.7}, {"measurement": "Ratio IC50", "setting": "[18]", "result": 29.4}, {"measurement": "Ratio IC50", "setting": "[19]", "result": 1}, {"measurement": "Ratio IC50", "setting": "[20]", "result": 98.2}, {"measurement": "viability at 2.5 µM", "setting": "[21]", "result": 75.4, "unit": "%"}, {"measurement": "viability at 5 µM", "setting": "[22]", "result": 94.5, "unit": "%"}, {"measurement": "Activity", "setting": "[23]", "result": 5.47, "unit": "%"}, {"measurement": "Activity", "setting": "[24]", "result": 9.21, "unit": "%"}, {"measurement": "Activity", "setting": "[25]", "result": 0.63, "unit": "%"}, {"measurement": "Activity", "setting": "[26]", "result": 0.7, "unit": "%"}]}
